Consider 19 molecules from PubChem BioAssay (NCI).

What all share (experiment): NCI anticancer screen, dose series, 48 h
The test system of assay [1] is A498 renal.
The test system of assay [2] is OVCAR-3 ovarian.
Assay [3] has as its system HCT-15 colon.
In assay [4] the test system is SK-MEL-5 melanoma.
For assay [5], the system named is SNB-75 CNS.
The subject of assay [6] is IGROV1 ovarian.
Assay [7] concerns OVCAR-4 ovarian.
For assay [8], the system named is HL-60(TB) leukemia.
The subject of assay [9] is HCC-2998 colon.
Assay [10] deals with U251 CNS.

Several values for one entry are separate records, joined by “and”; a condition that tells them apart may be missing. Equal entries are not always repeated.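 Briefly, cells in 96-well plates were exposed to five compound concentrations for 48 h, and endpoints were estimated by linear interpolation. GI50 is the concentration that inhibits growth by half. The concentration for full growth arrest is given as TGI.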

Turning to `CCN(CC)CC(=O)N1CCc2c([nH]c3ccccc23)C1c1cccnc1` (centres undefined), the TGI in assay [1], in assay [2], in assay [3], in assay [4], in assay [5] and in assay [6] was > 100 µM throughout. Further, the TGI in assay [7], in assay [8], in [9] and in assay [10] was > 100 µM in each case.
Turning to `NC(=O)C1(N2CCCCC2)CCN(CCCC(=O)c2ccc(F)cc2)CC1`, the GI50 in [1] is 2.72 µM; in assay [2], 0.117 µM; in assay [3], 24.7 µM; in assay [4], 0.158 µM; in [5], 0.147 µM; in assay [6], 7.28 µM. Besides, the GI50 was 8.72 µM in [7], 0.801 µM in assay [8], 1.78 µM in assay [9] and 0.263 µM in assay [10]. In addition, the TGI in [1] was 11.4 µM; in assay [2] it was 1.58 µM; in assay [3], > 100 µM; in assay [4] it was 12.6 µM; in assay [5], > 100 µM; in [6], > 100 µM. In addition, the TGI in [7] was > 100 µM; in assay [8], 4.19 µM; in [9], 6.19 µM; in assay [10] it was > 100 µM.
As to `CC1(C)OC2COC3(CNO)OC(C)(C)OC3C2O1` (centres undefined), the TGI in assay [1], in assay [2], in assay [3], in assay [4], in assay [5] and in assay [6] was > 100 µM throughout. Moreover, the TGI in [7] was > 100 µM; in assay [8] it was 30.2 µM; in assay [9] it was > 100 µM; in assay [10], > 100 µM.
Take `Cn1cc(-c2csc(-c3cn(C)c4ccccc34)n2)c2cnccc21`: the GI50 in assay [1] is 2.06 µM; in assay [2] it was 2.16 µM; in assay [3] it was 1.51 µM; in [4], 1.69 µM; in assay [5], 4.08 µM; in assay [6], 1.61 µM. The GI50 in assay [7] was 1.46 µM; in assay [8], 1.94 µM; in assay [9], 1.26 µM; in [10] it was 1.86 µM. The TGI in [1] is 3.88 µM; in assay [2] it was 4.13 µM; in [3], 3.2 µM; in [4], 3.07 µM; in assay [5] it was 16.9 µM; in assay [6], 3.24 µM. Moreover, the TGI turned out to be 11.1 µM in assay [7], 4.09 µM in assay [8], 2.6 µM in assay [9] and 3.45 µM in [10].
On to `Cc1ccc2c(c1)Sc1ccc(N=NN(C)C)cc1N2C`, for which the TGI in assay [1], in [2], in assay [3], in assay [4], in [5] and in [6] was > 100 µM throughout. The TGI in assay [7], in assay [8], in [9] and in [10] was > 100 µM each time.
Turning to `CC(=O)NNc1nc(C)c(C(=O)NNC(=O)C(=O)Nc2nc3ccc([N+](=O)[O-])cc3s2)s1`, the TGI in assay [1] was > 70.8 µM; in [2], 76.4 µM; in assay [3], > 100 µM; in [4] it was > 81.5 µM; in [5], > 100 µM; in [6], > 83.7 µM. Moreover, the TGI was > 100 µM in [7], 79.9 µM in assay [8], > 100 µM in [9] and > 100 µM in assay [10].
For `CC1CCCc2c1nn(C(=O)/C=C(\N)c1ccccc1)c2N` (centres undefined), the GI50 in [1] is 9.64 µM; in assay [2], 5.61 µM; in assay [3], 5.85 µM; in assay [4], 4.35 µM; in [5] it was 25.6 µM; in [6], 12.5 µM. The GI50 in assay [7] was 12.8 µM; in assay [8], 5.96 µM; in assay [9] it was 14.6 µM; in [10] it was 5.06 µM. Further, the TGI in assay [1] was 90.5 µM; in [2], 32.6 µM; in assay [3] it was > 100 µM; in assay [4] it was 45.7 µM; in [5] it was > 100 µM; in [6] it was > 100 µM. The TGI is > 100 µM in assay [7], 44.3 µM in assay [8], 85.5 µM in assay [9] and > 100 µM in assay [10].
As for `O=C1C(SCCO)=C(SCCO)C(=O)c2ccccc21`, the TGI in assay [1] was 1.35 µM; in [2] it was 3.22 µM; in assay [3] it was 3.58 µM; in [4], 0.653 µM; in assay [5], 2.57 µM; in assay [6], 2.78 µM. Further, the TGI in assay [7] was found to be 0.671 µM; in assay [8], 7.91 µM; in assay [9], 3.42 µM; in [10] it was 2.01 µM.
Take `Cn1c([N+](=O)[O-])cnc1/C=C1\Oc2cc(Cl)ccc2C1=O`: the GI50 in assay [1] is 1.95 µM; in [2], 0.441 µM; in assay [3], 0.267 µM; in assay [4], 0.289 µM; in assay [5], 1.8 µM; in assay [6], 0.783 µM. The GI50 was 2.48 µM in [7], 0.421 µM in [8], 2.04 µM in assay [9] and 1.53 µM in assay [10]. The TGI in assay [1] is 9.97 µM; in assay [2], 2.31 µM; in assay [3], 1.05 µM; in assay [4], 1.22 µM; in assay [5], 9.38 µM; in [6] it was > 20.2 µM. For the same molecule, the TGI in assay [7] is > 21.5 µM; in assay [8], 5.04 µM; in assay [9], 4.81 µM; in assay [10], 5.07 µM.
With `O=C/C(=C(/Cl)c1ccc(O)cc1)c1ccccc1`, the TGI in [1] was > 100 µM; in [2], 37.5 µM; in assay [3], 46 µM; in [4], 48.9 µM; in [5], > 67.2 µM; in assay [6] it was 66.6 µM. Besides, the TGI in assay [7] is > 54 µM; in assay [8] it was > 100 µM; in assay [9], > 100 µM; in assay [10] it was > 56.5 µM.
As for `O=C(O)CCC(NC(=S)S)C(=O)O.[Na+].[Zn+2]` (centres undefined), the GI50 in assay [1], in assay [2], in [3], in assay [4], in [5] and in assay [6] was > 50 µM each time. The GI50 in assay [7], in [8], in assay [9] and in assay [10] was > 50 µM in each case. Besides, the TGI in assay [1], in [2], in assay [3], in assay [4], in assay [5] and in assay [6] was > 50 µM in each case. For the same molecule, the TGI in [7], in assay [8], in assay [9] and in assay [10] was > 50 µM each time.
`CNC(=O)c1cc2c(Oc3ccc(NC(=O)C4(C(=O)Nc5ccc(F)cc5)CC4)cc3)ccnc2cc1OC`: the GI50 in assay [1] is 1.28 µM; in assay [2], 3.48 µM; in assay [3], 2.77 µM; in [4], 2.37 µM; in assay [5], 0.0837 µM; in assay [6] it was 2.32 µM. The GI50 in assay [7] was 3.55 µM; in assay [8], 2.63 µM; in assay [9], 5.61 µM; in assay [10] it was 3.51 µM. Moreover, the TGI in assay [1] was 3.27 µM; in [2], > 100 µM; in assay [3] it was > 100 µM; in assay [4] it was 6.51 µM; in [5], 2.74 µM; in [6], 8.96 µM. For the same molecule, the TGI in assay [7] was > 100 µM; in [8] it was 6.63 µM; in assay [9], > 100 µM; in assay [10], > 100 µM.
Turning to `COC(=O)/C(C#N)=C1\CCC(C(=O)OC)N1C` (centres undefined), the TGI in assay [1], in [2], in assay [3], in assay [4], in assay [5] and in assay [6] was > 100 µM throughout. For the same molecule, the TGI in assay [7], in assay [8], in [9] and in assay [10] was > 100 µM each time.
For `CCCCCCCCCCCCCC(=O)OCC1OC(=O)CC1O` (centres undefined), the TGI is > 100 µM in assay [1]; > 100 µM in assay [2]; 74.5 µM in assay [3]; > 100 µM in assay [4]; > 100 µM in assay [5]; > 100 µM in assay [6]. Further, the TGI in assay [7], in assay [8], in assay [9] and in assay [10] was > 100 µM in each case.
As for `O=C(c1ccc2ccccc2c1)c1c(C(F)(F)F)n([O-])c2ccc(Cl)cc2[n+]1=O`, the GI50 in assay [1] is 1.72 µM; in assay [2], 1.32 µM; in assay [3], 1.55 µM; in assay [4] it was 1.36 µM; in assay [5], 1.3 µM; in [6], 0.334 µM. Moreover, the GI50 in assay [7] is 1.39 µM; in [8], 1.59 µM; in assay [9] it was 1.26 µM; in assay [10], 1.67 µM. Also, the TGI in [1] came out at 3.11 µM; in [2] it was 2.62 µM; in assay [3] it was 2.94 µM; in assay [4], 2.65 µM; in assay [5], 2.57 µM; in [6], 1.06 µM. For the same molecule, the TGI was 2.72 µM in assay [7], 3.29 µM in assay [8], 2.6 µM in [9] and 3.03 µM in [10].
`Cc1nc(Nc2n[nH]c3c2CN(C(=O)N[C@H](CN(C)C)c2ccccc2)C3(C)C)c2sccc2n1`: the TGI was 1.85 µM and 3.25 µM in assay [1]; 1.57 µM and 7.36 µM in assay [2]; > 10 µM and 68.5 µM in assay [3]; 1.84 µM and 2.26 µM in assay [4]; 2.23 µM and 2.82 µM in assay [5]; > 3.53 µM and 16.7 µM in [6]. Also, the TGI in [7] was > 6.95 µM and 8.37 µM; in assay [8], 2.03 µM and 3.43 µM; in assay [9], 2.22 µM and 3.98 µM; in assay [10] it was > 7.15 µM and 8.11 µM. For the same molecule, the GI50 is 0.0255 µM and 0.0584 µM in [2]; 0.687 µM and 1.26 µM in [3]; 0.142 µM and 0.162 µM in assay [4]; 0.206 µM and 0.284 µM in assay [5]; 0.0127 µM and 0.0247 µM in assay [6]; 0.615 µM and 1.39 µM in assay [7]. Besides, the GI50 in assay [8] is 0.0189 µM and 0.0564 µM; in assay [9] it was 0.0135 µM and 0.0453 µM; in [10] it was 0.0242 µM and 0.0325 µM.
As for `CC(=O)[CH-]C(C)=O.[CH2-]C.[CH2-]C.[Tl+3]`, the GI50 in assay [1], in assay [2], in assay [3], in assay [4], in [5] and in [6] was > 100 µM each time. For the same molecule, the GI50 in assay [7], in [8], in assay [9] and in assay [10] was > 100 µM throughout. Also, the TGI in assay [1], in [2], in assay [3], in [4], in assay [5] and in assay [6] was > 100 µM throughout. The TGI in [7], in assay [8], in assay [9] and in assay [10] was > 100 µM throughout.
Take `Cc1ccccc1Nc1nc2c(s1)C(=O)c1ccccc1C2=O`: the TGI was determined as 39.5 µM in assay [1]; 5.31 µM in assay [2]; 10.7 µM in [3]; 7.12 µM in assay [4]; 29.9 µM in assay [5]; 26.4 µM in assay [6]. Also, the TGI is 5.13 µM in [7], > 100 µM in assay [8], 32.2 µM in assay [9] and 8.83 µM in assay [10].
For `CC1(C)N=C(N)N=C(N)N1c1ccc(OCC(=O)Nc2ccccc2)c(Cl)c1`, the GI50 is > 58.1 µM in assay [1]; 8.51 µM in assay [2]; 72.3 µM in assay [3]; 1.08 µM in assay [4]; > 100 µM in assay [5]; 0.688 µM in assay [6]. Also, the GI50 in assay [7] was 15.8 µM; in [8], 0.922 µM; in [9] it was 4.99 µM; in [10], 0.674 µM. The TGI in assay [1], in assay [2], in assay [3], in assay [4], in [5] and in assay [6] was > 100 µM throughout. In addition, the TGI in [7], in assay [8], in assay [9] and in assay [10] was > 100 µM throughout.
